Assay results published in patent US7662994B2, “Method for the preparation of crystalline dexloxiglumide and products obtained” (Rottapharm S.p.A., priority 2003, dated 2010).

Experiments:
[1] = Compressibility of the powder (Carr index, USP 24/NF19); format: physicochemical; details: 100 g powder, 250 ml graduated cylinder, 2000 strokes; percentage values 5-15 excellent, >33 very poor
Description: a) measurement of the compressibility of the powder which is expressed by the following formula (Carr index; (according to USP 24/NF19, p. 1914): [formula] where Vo and Vf are respectively the volumes occupied by a predetermined weighed quantity of powder (generally 100 g) placed in a 250 ml graduated cylinder and measured before and after a certain number of mechanical strokes (generally 2000 strokes); the smaller this index is the better will be the behaviour of the powder upon compression; for example, percentage values between 5-15 are considered excellent, whereas values greater than 33 are considered very poor (see J. I. Wells—Pharmaceutical Preformulation; Ellis H. Lim; J. Wiley and Sons Ed. p.

[2] = Particle size distribution by laser light scattering (Malvern Master Sizer 2000, wet method); format: physicochemical; details: for span index: (D90-D10)/D50 type width of distribution; for D50 (mean size measurement) / percentage of particles <10 μm (fine particles): wet method, H2O with 0.5% Tween 20, sonication 60 sec
Description: The PSD is determined by the “laser light scattering” technique, that is, the scattering (diffraction) which a high-energy, monochromatic light beam (a laser beam) undergoes when it encounters a particle of a particular size on its optical path. The powder to be examined may be prepared by various techniques, both dry and wet; in the latter case, the selection of the dispersant should take account of the chemical/physical properties of the raw material to be analyzed. Once the sample has been analyzed, the results can be given as histograms in which each individual column represents a band of a certain width (in microns), whereas the height represents the percentage of sample present in that band. The principal statistical distribution values calculated by the software of this apparatus are, amongst other things, the D50, that is, the size in microns for which 50% of the sample is smaller and 50% is larger. Another important measurement is the “span”, which is the measurement of the width of the distribution. This width is calculated by the following ratio: [formula] where D90 and D10 have meanings analogous to that of D50. The smaller this “span” index is, the more reliable the particle distribution of the sample examined will be. The apparatus used for the determination of the PSD was a Malvern Master Sizer 2000 and the method used was the wet method with the use of H2O as the dispersant with a concentration of 0.5% of Tween 20 as surfactant. The measurements were taken at a concentration of dexloxiglumide of about 0.06-0.08% after ultrasound sonication for 60 sec which enabled the accumulations to be broken up without breaking the crystals. Note: The particle sizes given both in the text and in the claims are not absolute quantities but are relative to the measurement method used (in this case the Malvern Master Sizer 2000 instrument with the method described in Example 1).

[3] = Morphological analysis of the crystals by microscopy (300x); format: physicochemical; details: photographs, 300x magnification
Description: Morphological analysis performed by microscopic analysis of the crystals obtained by crystallization from ethanol/H2O and isopropyl ether, respectively, also confirms what had already been seen with by particle-size analysis by laser-beam diffraction.
It can be seen from a comparison of the two images of FIG. 2 that the product crystallized from isopropyl ether has crystals with well-defined, lamellar shapes with an average diameter of about 70-100 μm, whereas the other lot has crystals of irregular shape with very many smaller aggregated crystals.

[4] = target: T1, type-1 cholecystokinin (CCK1) receptor (Homo sapiens, UniProt P32238); details: cited from earlier work
T1 sequence (P32238 1-428): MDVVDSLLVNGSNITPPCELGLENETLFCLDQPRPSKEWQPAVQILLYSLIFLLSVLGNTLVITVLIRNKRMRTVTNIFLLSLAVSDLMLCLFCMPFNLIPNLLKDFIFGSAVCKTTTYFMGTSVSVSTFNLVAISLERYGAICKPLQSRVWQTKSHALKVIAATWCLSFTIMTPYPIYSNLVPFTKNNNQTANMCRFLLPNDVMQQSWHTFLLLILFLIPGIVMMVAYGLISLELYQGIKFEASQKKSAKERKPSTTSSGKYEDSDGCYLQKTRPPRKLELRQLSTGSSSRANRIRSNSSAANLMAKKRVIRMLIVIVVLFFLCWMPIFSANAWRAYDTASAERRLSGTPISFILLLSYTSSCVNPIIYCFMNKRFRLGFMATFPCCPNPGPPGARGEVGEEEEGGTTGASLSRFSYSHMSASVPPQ

Row | Structure (SMILES) | Carr index [1] | shape of particle distribution [2] | span index [2] | D50 (mean size measurement) [2] [μm] | percentage of particles <10 μm (fine particles) [2] [%] | average diameter of crystals [3] | antagonistic activity towards CCK1 receptor [4]
1 | CCCCCN(CCCOC)C(=O)[C@@H](CCC(=O)O)NC(=O)c1ccc(Cl)c(Cl)c1 [lot PP9282/43851, (R)-4-[(3,4-dichlorobenzoyl)amino]-5-[(3-methoxypropyl)-pentylamino]-5-oxo-pentanoic acid] | about 12 | practically unimodal | 1.608 | 97.3 | 4.23 | 70-100 μm | –
2 | CCCCCN(CCCOC)C(=O)[C@@H](CCC(=O)O)NC(=O)c1ccc(Cl)c(Cl)c1 [dexloxiglumide obtained by crystallization from H2O/ethanol ] [(R)-4-[(3,4-dichlorobenzoyl)amino]-5-[(3-methoxypropyl)-pentylamino]-5-oxo-pentanoic acid, reference compound] | > 33 | bimodal | 4.668 | 23.6 | 29.5 | – | –
3 | CCCCCN(CCCOC)C(=O)[C@@H](CCC(=O)O)NC(=O)c1ccc(Cl)c(Cl)c1 [Dexloxiglumide, (R)-4-[(3,4-dichlorobenzoyl)amino]-5-[(3-methoxypropyl)-pentylamino]-5-oxo-pentanoic acid] | – | – | – | – | – | – | potent antagonistic activity
